{
  "source": "patent US20070196488A1",
  "about": "“Oral matrix formulations comprising licarbazepine” (priority 2004, published 2007)",
  "origin": "cited, not measured here",
  "test_system": "epilepsy",
  "settings": "racemate compared with both pure enantiomers",
  "data": [
    {"smiles": "NC(=O)N1c2ccccc2CC(O)c2ccccc21", "note": "(racemic) [Licarbazepine, 10,11-dihydro-10-hydroxy-5H-dibenz[b,f]azepine-5-carboxamide]", "values": [
      {"measurement": "efficacy against epilepsy", "value": "equal efficacy"}
    ]}
  ]
}
